Test system: 922993-354-T-J3-PDC complex spheroid viability
Assay: Anticancer human tumor 922993-354-T-J3-PDC patient-derived endometrial carcinoma cell line growth inhibition [POLQ]
Conditions: for IC50: curve of first compound; for viability, T/C: stronger effect = lower value
Summary of the method: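 PDC + HUVEC + MSC complex spheroids; POLQ inhibitors ± partner drugs; top conc. at/near clinical Cmax, else 10 microM (SN-38 1 microM), half-log dilutions; 37 degrees C, 5% CO2.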

[1] = second compound 0.0316 µM, first compound 0.0316 µM
[2] = second compound 0.0316 µM, first compound 0.1 µM
[3] = second compound 0.0316 µM, first compound 0.316 µM
[4] = second compound 0.0316 µM, first compound 1 µM
[5] = second compound 0.1 µM, first compound 0.0316 µM
[6] = second compound 0.1 µM, first compound 0.1 µM
[7] = second compound 0.1 µM, first compound 0.316 µM
[8] = second compound 0.1 µM, first compound 1 µM
[9] = second compound 0.316 µM, first compound 0.0316 µM
[10] = second compound 0.316 µM, first compound 0.1 µM
[11] = second compound 0.316 µM, first compound 0.316 µM
[12] = second compound 0.316 µM, first compound 1 µM
[13] = second compound 1 µM, first compound 0.0316 µM
[14] = second compound 1 µM, first compound 0.1 µM
[15] = second compound 1 µM, first compound 0.316 µM
[16] = second compound 1 µM, first compound 1 µM
[17] = second compound 3.16 µM, first compound 0.0316 µM
[18] = second compound 3.16 µM, first compound 0.1 µM
[19] = second compound 3.16 µM, first compound 0.316 µM
[20] = second compound 3.16 µM, first compound 1 µM
[21] = second compound 10 µM, first compound 0.0316 µM
[22] = second compound 10 µM, first compound 0.1 µM
[23] = second compound 10 µM, first compound 0.316 µM
[24] = second compound 10 µM, first compound 1 µM
[25] = second compound 0.0316 µM, first compound 3.16 µM
[26] = second compound 0.0316 µM, first compound 10 µM
[27] = second compound 0.1 µM, first compound 3.16 µM
[28] = second compound 0.1 µM, first compound 10 µM
[29] = second compound 0.316 µM, first compound 3.16 µM
[30] = second compound 0.316 µM, first compound 10 µM
[31] = second compound 1 µM, first compound 3.16 µM
[32] = second compound 1 µM, first compound 10 µM
[33] = second compound 3.16 µM, first compound 3.16 µM
[34] = second compound 3.16 µM, first compound 10 µM
[35] = second compound 10 µM, first compound 3.16 µM
[36] = second compound 10 µM, first compound 10 µM
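Also: spheroids exposed to the agents for one week.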
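For viability, T/C in this document: 100% = DMSO vehicle control wells.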

With `CCc1c2c(nc3ccc(O)cc13)-c1cc3c(c(=O)n1C2)COC(=O)[C@]3(O)CC` + Cc1cccc(N(C)C(=O)C2C(O)CCN2c2nc(C)cc(C(F)(F)F)c2C#N)c1 the IC50 (second compound 0.0316 µM) was 0.0116 µM, the IC50 (second compound 0.1 µM) was 0.0143 µM and the IC50 (second compound 0.316 µM) was 0.0142 µM. It also gave an IC50 (second compound 1 µM) of 0.017 µM, an IC50 (second compound 3.16 µM) of 0.013 µM and an IC50 (second compound 10 µM) of 0.00684 µM. It also gave a viability, T/C (second compound 0.0316 µM, first compound 0.00316 µM) of 89.5%, a viability, T/C (second compound 0.0316 µM, first compound 0.01 µM) of 55% and a viability, T/C [1] of 15.1%. For the same compound, the viability, T/C [2] was 12.8%, the viability, T/C [3] was 12.9% and the viability, T/C [4] was 15%. The viability, T/C (second compound 0.1 µM, first compound 0.00316 µM) was 91.8%, the viability, T/C (second compound 0.1 µM, first compound 0.01 µM) was 63.5% and the viability, T/C [5] was 20.2%. It also gave a viability, T/C [6] of 11.3%, a viability, T/C [7] of 12.8% and a viability, T/C [8] of 16.3%. For the same compound, the viability, T/C (second compound 0.316 µM, first compound 0.00316 µM) was 100%, the viability, T/C (second compound 0.316 µM, first compound 0.01 µM) was 63.4% and the viability, T/C [9] was 19.7%. It also gave a viability, T/C [10] of 11.9%, a viability, T/C [11] of 12.4% and a viability, T/C [12] of 17.1%. For the same compound, the viability, T/C (second compound 1 µM, first compound 0.00316 µM) was 100%, the viability, T/C (second compound 1 µM, first compound 0.01 µM) was 72.8% and the viability, T/C [13] was 23.5%. For the same compound, the viability, T/C [14] was 10.3%, the viability, T/C [15] was 12.4% and the viability, T/C [16] was 15.3%. For the same compound, the viability, T/C (second compound 3.16 µM, first compound 0.00316 µM) was 90.9%, the viability, T/C (second compound 3.16 µM, first compound 0.01 µM) was 58.3% and the viability, T/C [17] was 21.7%. For the same compound, the viability, T/C [18] was 9.8%, the viability, T/C [19] was 12.3% and the viability, T/C [20] was 17.4%. It also gave a viability, T/C (second compound 10 µM, first compound 0.00316 µM) of 82.3%, a viability, T/C (second compound 10 µM, first compound 0.01 µM) of 34.1% and a viability, T/C [21] of 10.5%. The viability, T/C [22] was 10%, the viability, T/C [23] was 13.9% and the viability, T/C [24] was 17.7%.
`O=C(c1cc(Cc2n[nH]c(=O)c3ccccc23)ccc1F)N1CCN(C(=O)C2CC2)CC1` + Cc1cccc(N(C)C(=O)C2C(O)CCN2c2nc(C)cc(C(F)(F)F)c2C#N)c1 showed an IC50 (second compound 0.0316 µM) of over 10 µM, an IC50 (second compound 0.1 µM) of over 10 µM and an IC50 (second compound 0.316 µM) of over 10 µM. It also gave an IC50 (second compound 1 µM) of over 10 µM, an IC50 (second compound 3.16 µM) of over 10 µM and an IC50 (second compound 10 µM) of over 10 µM. It also gave a viability, T/C [1] of 104%, a viability, T/C [2] of 103% and a viability, T/C [3] of 101%. The viability, T/C [4] was 113%, the viability, T/C [25] was 99.2% and the viability, T/C [26] was 92.4%. The viability, T/C [5] was 111%, the viability, T/C [6] was 103% and the viability, T/C [7] was 111%. The viability, T/C [8] was 102%, the viability, T/C [27] was 103% and the viability, T/C [28] was 109%. The viability, T/C [9] was 113%, the viability, T/C [10] was 108% and the viability, T/C [11] was 104%. It also gave a viability, T/C [12] of 112%, a viability, T/C [29] of 92.9% and a viability, T/C [30] of 103%. For the same compound, the viability, T/C [13] was 96.4%, the viability, T/C [14] was 108% and the viability, T/C [15] was 106%. For the same compound, the viability, T/C [16] was 107%, the viability, T/C [31] was 99.1% and the viability, T/C [32] was 109%. The viability, T/C [17] was 98.3%, the viability, T/C [18] was 107% and the viability, T/C [19] was 95.3%. The viability, T/C [20] was 94.7%, the viability, T/C [33] was 109% and the viability, T/C [34] was 106%. For the same compound, the viability, T/C [21] was 100%, the viability, T/C [22] was 97.7% and the viability, T/C [23] was 112%. The viability, T/C [24] was 104%, the viability, T/C [35] was 104% and the viability, T/C [36] was 103%.
`O=c1[nH]cc(F)c(=O)[nH]1` + Cc1cccc(N(C)C(=O)C2C(O)CCN2c2nc(C)cc(C(F)(F)F)c2C#N)c1 was tested, and the IC50 (second compound 0.0316 µM) was 2.29 µM, the IC50 (second compound 0.1 µM) was 2.13 µM and the IC50 (second compound 0.316 µM) was 2.1 µM. The IC50 (second compound 1 µM) was 2.28 µM, the IC50 (second compound 3.16 µM) was 2.54 µM and the IC50 (second compound 10 µM) was 2.49 µM. The viability, T/C [1] was 102%, the viability, T/C [2] was 100% and the viability, T/C [3] was 93%. It also gave a viability, T/C [4] of 90%, a viability, T/C [25] of 34.6% and a viability, T/C [26] of 16.3%. It also gave a viability, T/C [5] of 89.5%, a viability, T/C [6] of 95.7% and a viability, T/C [7] of 97.8%. For the same compound, the viability, T/C [8] was 94.4%, the viability, T/C [27] was 26.9% and the viability, T/C [28] was 17.5%. It also gave a viability, T/C [9] of 108%, a viability, T/C [10] of 96.1% and a viability, T/C [11] of 102%. For the same compound, the viability, T/C [12] was 86.6%, the viability, T/C [29] was 29.7% and the viability, T/C [30] was 14.8%. It also gave a viability, T/C [13] of 103%, a viability, T/C [14] of 102% and a viability, T/C [15] of 98.1%. The viability, T/C [16] was 97.3%, the viability, T/C [31] was 31.1% and the viability, T/C [32] was 15.9%. For the same compound, the viability, T/C [17] was 103%, the viability, T/C [18] was 104% and the viability, T/C [19] was 101%. For the same compound, the viability, T/C [20] was 90.5%, the viability, T/C [33] was 40.6% and the viability, T/C [34] was 12.1%. The viability, T/C [21] was 104%, the viability, T/C [22] was 98.8% and the viability, T/C [23] was 111%. For the same compound, the viability, T/C [24] was 94.6%, the viability, T/C [35] was 38.3% and the viability, T/C [36] was 13.5%.
